Experiment: Rest activity of natamycin over time in water based polymer dispersion mixtures (HPLC)
Type: physicochemical
Excerpt: This example describes a method to prepare a formulation suitable for use as a food coating and which was developed to test the stability of natamycin over time in relation to the added base polymers.
The mixtures were made with an electric top stirrer, type RW 20 DZM, from Janke & Kunkel equipped with a rushton stirrer.
The mixtures were made by adding 500 gram Mowilith DM2KL, 1000 gram of the latex polymer, to be tested together with 4 gram Delvocid® and a protective additive.
The total weight was made up to 2000 gram with tap water.
This crude mixture was mixed for 5 minutes to obtain a homogeneous mixture and was then adjusted to pH 4-7 with ammonia.
The mixture was stored at 18° C. in a closed pot in the dark.
The prepared mixtures were measured over time for the amount of active natamycin using the test described in Example 2.
This Example describes the method that was used to analyze the amount of active natamycin in a water based mixture of several components.
The method was a HPLC analysis based on the International Dairy Federation (Provisional ADF Standard 140, 1987) with a Lichrosorb RP 8 column. Detection was by UV at 303 nm with a range of 0.1-4 mg/L with an injection volume of 20 μl.
Sample preparation was carried out by weighing 2 g prepared formulation with an accuracy of 1 mg in a measuring flask. 4 ml demineralized water (demiwater) was added and the mixture was stirred for […] a homogeneous suspension.
Subsequently 80 ml methanol was added and the mixture was stirred for 10 minutes. After ultrasonic treatment the solution was filled up to 100 ml with demiwater and the diluted and/or filtered (0.2 μm) before injecting.
The amount of active natamycin as ppm was calculated against a series of standards.
To test the stability of natamycin in combination with water based polymer dispersions mixtures, mixtures were made according to Example 1, and the rest activity of natamycin measured according to Example 2. The results are set out in table 1 (rest activity in %).

In the case of `C[C@@H]1C/C=C/C=C/C=C/C=C/[C@H](O[C@@H]2O[C@H](C)[C@@H](O)[C@H](N)[C@@H]2O)C[C@@H]2O[C@](O)(C[C@@H](O)C[C@H]3O[C@@H]3/C=C/C(=O)O1)C[C@H](O)[C@H]2C(=O)O` [natamycin], the “Rest activity of natamycin over time” value (Basepolymer 2, EDTA-disodiumsalt 0 ppm, 0 weeks) is reported as 100%, the “Rest activity of natamycin over time” value (Basepolymer 2, EDTA-disodiumsalt 0 ppm, 1 week) is reported as 70% and the “Rest activity of natamycin over time” value (Basepolymer 2, EDTA-disodiumsalt 0 ppm, 3 weeks) is reported as 22%. The “Rest activity of natamycin over time” value (Basepolymer 2, EDTA-disodiumsalt 0 ppm, 5 weeks) was 5%, the “Rest activity of natamycin over time” value (Basepolymer 2, EDTA-disodiumsalt 0 ppm, 7 weeks) was 2% and the “Rest activity of natamycin over time” value (Basepolymer 2, EDTA-disodiumsalt 100 ppm, 0 weeks) was 100%. The “Rest activity of natamycin over time” value (Basepolymer 2, EDTA-disodiumsalt 100 ppm, 1 week) was 99%, the “Rest activity of natamycin over time” value (Basepolymer 2, EDTA-disodiumsalt 100 ppm, 3 weeks) was 98% and the “Rest activity of natamycin over time” value (Basepolymer 2, EDTA-disodiumsalt 100 ppm, 5 weeks) was 88%. The “Rest activity of natamycin over time” value (Basepolymer 2, EDTA-disodiumsalt 100 ppm, 7 weeks) was 82%, the “Rest activity of natamycin over time” value (Basepolymer 2, EDTA-disodiumsalt 250 ppm, 0 weeks) was 100% and the “Rest activity of natamycin over time” value (Basepolymer 2, EDTA-disodiumsalt 250 ppm, 1 week) was 97%. The “Rest activity of natamycin over time” value (Basepolymer 2, EDTA-disodiumsalt 250 ppm, 3 weeks) was 95%, the “Rest activity of natamycin over time” value (Basepolymer 2, EDTA-disodiumsalt 250 ppm, 5 weeks) was 88% and the “Rest activity of natamycin over time” value (Basepolymer 2, EDTA-disodiumsalt 250 ppm, 7 weeks) was 85%. For the same compound, the “Rest activity of natamycin over time” value (Basepolymer 2, EDTA-disodiumsalt 500 ppm, 0 weeks) was 100%, the “Rest activity of natamycin over time” value (Basepolymer 2, EDTA-disodiumsalt 500 ppm, 1 week) was 95% and the “Rest activity of natamycin over time” value (Basepolymer 2, EDTA-disodiumsalt 500 ppm, 3 weeks) was 92%. For the same compound, the “Rest activity of natamycin over time” value (Basepolymer 2, EDTA-disodiumsalt 500 ppm, 5 weeks) was 86%, the “Rest activity of natamycin over time” value (Basepolymer 2, EDTA-disodiumsalt 500 ppm, 7 weeks) was 80% and the “Rest activity of natamycin over time” value (Basepolymer 2, EDTA-disodiumsalt 750 ppm, 0 weeks) was 100%. The “Rest activity of natamycin over time” value (Basepolymer 2, EDTA-disodiumsalt 750 ppm, 1 week) was 96%, the “Rest activity of natamycin over time” value (Basepolymer 2, EDTA-disodiumsalt 750 ppm, 3 weeks) was 95% and the “Rest activity of natamycin over time” value (Basepolymer 2, EDTA-disodiumsalt 750 ppm, 5 weeks) was 88%. For the same compound, the “Rest activity of natamycin over time” value (Basepolymer 2, EDTA-disodiumsalt 750 ppm, 7 weeks) was 82%, the “Rest activity of natamycin over time” value (Basepolymer 2, EDTA-disodiumsalt 1000 ppm, 0 weeks) was 100% and the “Rest activity of natamycin over time” value (Basepolymer 2, EDTA-disodiumsalt 1000 ppm, 1 week) was 96%. For the same compound, the “Rest activity of natamycin over time” value (Basepolymer 2, EDTA-disodiumsalt 1000 ppm, 3 weeks) was 95%, the “Rest activity of natamycin over time” value (Basepolymer 2, EDTA-disodiumsalt 1000 ppm, 5 weeks) was 88% and the “Rest activity of natamycin over time” value (Basepolymer 2, EDTA-disodiumsalt 1000 ppm, 7 weeks) was 81%. For the same compound, the “Rest activity of natamycin over time” value (Basepolymer 2, EDTA-disodiumsalt 2000 ppm, 0 weeks) was 100%, the “Rest activity of natamycin over time” value (Basepolymer 2, EDTA-disodiumsalt 2000 ppm, 1 week) was 97% and the “Rest activity of natamycin over time” value (Basepolymer 2, EDTA-disodiumsalt 2000 ppm, 3 weeks) was 94%. The “Rest activity of natamycin over time” value (Basepolymer 2, EDTA-disodiumsalt 2000 ppm, 5 weeks) was 88%, the “Rest activity of natamycin over time” value (Basepolymer 2, EDTA-disodiumsalt 2000 ppm, 7 weeks) was 79% and the “Rest activity of natamycin over time” value (Basepolymer 2, EDTA-disodiumsalt 5000 ppm, 0 weeks) was 100%. The “Rest activity of natamycin over time” value (Basepolymer 2, EDTA-disodiumsalt 5000 ppm, 1 week) was 97%, the “Rest activity of natamycin over time” value (Basepolymer 2, EDTA-disodiumsalt 5000 ppm, 3 weeks) was 95% and the “Rest activity of natamycin over time” value (Basepolymer 2, EDTA-disodiumsalt 5000 ppm, 5 weeks) was 88%. The “Rest activity of natamycin over time” value (Basepolymer 2, EDTA-disodiumsalt 5000 ppm, 7 weeks) was 81%, the “Rest activity of natamycin over time” value (basepolymer 3, With BHA 1000 ppm, 1 week) was 96% and the “Rest activity of natamycin over time” value (basepolymer 3, With BHA 1000 ppm, 2 weeks) was 92%. For the same compound, the “Rest activity of natamycin over time” value (basepolymer 3, With BHA 1000 ppm, 4 weeks) was 84%, the “Rest activity of natamycin over time” value (basepolymer 3, With tocopherol 1000 ppm, 1 week) was 92% and the “Rest activity of natamycin over time” value (basepolymer 3, With tocopherol 1000 ppm, 2 weeks) was 83%. For the same compound, the “Rest activity of natamycin over time” value (basepolymer 3, With tocopherol 1000 ppm, 4 weeks) was 76%, the “Rest activity of natamycin over time” value (basepolymer 3, Without additive, 1 week) was 88% and the “Rest activity of natamycin over time” value (basepolymer 3, Without additive, 2 weeks) was 70%. For the same compound, the “Rest activity of natamycin over time” value (basepolymer 3, Without additive, 4 weeks) was 50%.
